pIC50: −log10 of the molar value. Counter-ions that a name gives are not always drawn.
Legend:
PARP-1 = target: T1, PARP-1 (Homo sapiens, UniProt P09874); test: PARP-1 SPA assay; format: biochemical
T1 construct: purchased Trevigen 4668-500-01
Outline: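 PARP-1 reaction in Tris pH 8 buffer with MgCl2, spermine, KCl, activated calf thymus DNA and a mix of [3H]-NAD, NAD and biotinylated NAD, 2 h at RT. Stopped with EDTA/streptavidin SPA beads and poly(ADP-ribose) incorporation counted by scintillation.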

[1] = system: BRCA-1 silenced HeLa cells (HeLa shBRCA1-GFP); test: Proliferation assay in BRCA-1 silenced HeLa cells; format: cell-based; settings: Homo sapiens; BRCA1 silenced HeLa cells, 168 hours; read-out: CC50 in the BRCA1 silenced HeLa cells
Outline: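 Antiproliferative effect was read by Celltiter Blue fluorescence after 168 h of compound treatment at 37° C., 5% CO2. Cells were matched HeLa pairs, BRCA1-shRNA (>80% silenced, GFP) versus non-shRNA vector control, in DMEM with 10% FCS.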

T1 sequence (P09874 whole entry): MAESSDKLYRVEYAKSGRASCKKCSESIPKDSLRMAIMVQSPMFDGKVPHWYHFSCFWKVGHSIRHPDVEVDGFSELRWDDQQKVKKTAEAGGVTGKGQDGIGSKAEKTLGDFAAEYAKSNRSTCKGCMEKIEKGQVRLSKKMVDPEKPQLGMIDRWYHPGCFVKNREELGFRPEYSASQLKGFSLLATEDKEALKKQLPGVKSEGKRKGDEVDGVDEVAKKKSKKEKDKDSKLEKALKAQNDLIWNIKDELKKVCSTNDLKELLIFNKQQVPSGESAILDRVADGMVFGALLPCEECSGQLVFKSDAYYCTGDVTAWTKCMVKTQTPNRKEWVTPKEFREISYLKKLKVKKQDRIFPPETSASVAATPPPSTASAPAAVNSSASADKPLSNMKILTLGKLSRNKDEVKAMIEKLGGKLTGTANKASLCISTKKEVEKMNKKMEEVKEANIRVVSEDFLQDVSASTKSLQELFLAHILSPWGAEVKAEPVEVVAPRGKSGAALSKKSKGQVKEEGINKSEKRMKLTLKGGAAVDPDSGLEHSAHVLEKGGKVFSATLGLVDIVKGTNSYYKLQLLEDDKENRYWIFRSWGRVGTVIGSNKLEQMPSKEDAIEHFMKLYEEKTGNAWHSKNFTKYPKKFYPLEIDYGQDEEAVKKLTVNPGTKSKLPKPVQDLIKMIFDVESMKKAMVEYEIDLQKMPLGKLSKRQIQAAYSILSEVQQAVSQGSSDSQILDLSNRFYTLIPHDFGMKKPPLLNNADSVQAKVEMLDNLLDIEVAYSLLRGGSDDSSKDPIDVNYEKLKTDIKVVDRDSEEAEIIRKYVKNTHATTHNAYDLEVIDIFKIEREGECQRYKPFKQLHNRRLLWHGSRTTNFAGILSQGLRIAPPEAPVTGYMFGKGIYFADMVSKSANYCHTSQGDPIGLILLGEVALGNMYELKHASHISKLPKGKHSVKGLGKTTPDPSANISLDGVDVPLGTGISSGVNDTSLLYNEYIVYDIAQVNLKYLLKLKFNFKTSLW

| SMILES | pIC50 (PARP-1) | CC50 [1] |
| --- | --- | --- |
| Cc1c(Cc2ccc(F)c(C(=O)N3CC(=O)N4CCCC[C@H]4C3)c2)n[nH]c(=O)c1C(F)(F)F [Example 135, 3-(4-Fluoro-3-{[(9aS)-4-oxooctahydro-2h-pyrido[1,2-a]pyrazin-2-yl]carbonyl}benzyl)-4-methyl-6-oxo-5-(trifluoromethyl)-1,6-dihydropyridazin-1-ium trifluoroacetate] | 7.60 to 8.30 | < 50 nM |
| Cc1c(Cc2ccc(F)c(C(=O)N3CC(=O)N4CCOCC4C3)c2)n[nH]c(=O)c1C(F)(F)F (stereo not shown) [Example 136, 3-{4-Fluoro-3-[(6-oxohexahydropyrazino[2,1-c][1,4]oxazin-8(1H)-yl)carbonyl]benzyl}-4-methyl-6-oxo-5-(trifluoromethyl)-1,6-dihydropyridazin-1-ium trifluoroacetate] | > 8.30 | 50 to 500 nM |
| CCN1C(=O)CN(C(=O)c2cc(Cc3n[nH]c(=O)c(C)c3C)ccc2F)CC1C (stereo not shown) [Example 137, 6-{3-[(4-ethyl-3-methyl-5-oxopiperazin-1-yl)carbonyl]-4-fluorobenzyl}-4,5-dimethyl-3-oxo-2,3-dihydropyridazin-1-ium trifluoroacetate] | 7.60 to 8.30 | 50 to 500 nM |
| COc1ccc(CN2C(=O)CN(C(=O)c3cc(Cc4n[nH]c(=O)c(C)c4C)ccc3F)CC2C)cc1 (stereo not shown) [Example 138, 6-(4-fluoro-3-{[4-(4-methoxybenzyl)-3-methyl-5-oxopiperazin-1-yl]carbonyl}benzyl)-4,5-dimethyl-3-oxo-2,3-dihydropyridazin-1-ium trifluoroacetate] | 7.60 to 8.30 | 50 to 500 nM |
| Cc1c(Cc2ccc(F)c(C(=O)N3CC(=O)N(CC(F)(F)F)C(C)C3)c2)n[nH]c(=O)c1C (stereo not shown) [Example 139, 6-(4-fluoro-3-{[3-methyl-5-oxo-4-(2,2,2-trifluoroethyl)piperazin-1-yl]carbonyl}benzyl)-4,5-dimethyl-3-oxo-2,3-dihydropyridazin-1-ium trifluoroacetate] | 7.60 to 8.30 | 50 to 500 nM |
| Cc1c(Cc2ccc(F)c(C(=O)N3CC(=O)N(C4C[C@H]5CC[C@@H]4C5)C(C)C3)c2)n[nH]c(=O)c1C (stereo partly drawn) [Example 140, 6-[3-({4-[(1R,4S)-bicyclo[2.2.1]hept-2-yl]-3-methyl-5-oxopiperazin-1-yl}carbonyl)-4-fluorobenzyl]-4,5-dimethyl-3-oxo-2,3-dihydropyridazin-1-ium trifluoroacetate] | 7.60 to 8.30 | < 50 nM |
| Cc1c(Cc2ccc(F)c(C(=O)N3CCN(C4CCCOC4)C(=O)C3)c2)n[nH]c(=O)c1C(F)(F)F (stereo not shown) [Example 141, 3-(4-Fluoro-3-{[3-oxo-4-(tetrahydro-2H-pyran-3-yl)piperazin-1-yl]carbonyl}benzyl)-4-methyl-6-oxo-5-(trifluoromethyl)-1,6-dihydropyridazin-1-ium trifluoroacetate] | 7.60 to 8.30 | < 50 nM |
| Cc1c(Cc2ccc(F)c(C(=O)N3CCN(C4CCOC4)C(=O)C3)c2)n[nH]c(=O)c1C(F)(F)F (stereo not shown) [Example 142, 3-(4-Fluoro-3-{[3-oxo-4-(tetrahydrofuran-3-yl)piperazin-1-yl]carbonyl}benzyl)-4-methyl-6-oxo-5-(trifluoromethyl)-1,6-dihydropyridazin-1-ium trifluoroacetate] | > 8.30 | < 50 nM |
| CCc1cc(Cc2ccc(F)c(C(=O)N3CCN([C@H]4CCCOC4)C(=O)C3)c2)n[nH]c1=O [Example 144, 4-ethyl-6-[4-fluoro-3-({3-oxo-4-[(3S)-tetrahydro-2H-pyran-3-yl]piperazin-1-yl}carbonyl)benzyl]pyridazin-3(2H)-one] | > 8.30 | < 5000 nM |
| CCc1cc(Cc2ccc(F)c(C(=O)N3CCN([C@@H]4CCCOC4)C(=O)C3)c2)n[nH]c1=O [Example 145, 4-ethyl-6-[4-fluoro-3-({3-oxo-4-[(3R)-tetrahydro-2H-pyran-3-yl]piperazin-1-yl}carbonyl)benzyl]pyridazin-3(2H)-one] | 7.60 to 8.30 | 50 to 500 nM |
| Cc1c(Cc2ccc(F)c(C(=O)N3CCN(C4CCOCC4)C(=O)C3)c2)n[nH]c(=O)c1C(F)(F)F [Example 146, 3-(4-Fluoro-3-{[3-oxo-4-(tetrahydro-2H-pyran-4-yl)piperazin-1-yl]carbonyl}benzyl)-4-methyl-6-oxo-5-(trifluoromethyl)-1,6-dihydropyridazin-1-ium trifluoroacetate] | 7.60 to 8.30 | < 50 nM |
| CCN1C(=O)CN(C(=O)c2cc(Cc3n[nH]c(=O)c(C(F)(F)F)c3C)ccc2F)CC1C (stereo not shown) [Example 147, 3-{3-[(4-Ethyl-3-methyl-5-oxopiperazin-1-yl)carbonyl]-4-fluorobenzyl}-4-methyl-6-oxo-5-(trifluoromethyl)-1,6-dihydropyridazin-1-ium trifluoroacetate] | 7.60 to 8.30 | < 50 nM |
| CCc1cc(Cc2ccc(F)c(C(=O)N3CCN(C4CCc5ccccc5C4)C(=O)C3)c2)n[nH]c1=O (stereo not shown) [Example 148, 4-Ethyl-6-(4-fluoro-3-{[3-oxo-4-(1,2,3,4-tetrahydronaphthalen-2-yl)piperazin-1-yl]carbonyl}benzyl)pyridazin-3(2H)-one] | > 8.30 | 50 to 500 nM |
| Cc1c(Cc2ccc(F)c(C(=O)N3CCN(C4CCC(F)C4)C(=O)C3)c2)n[nH]c(=O)c1C (stereo not shown) [Example 150, 6-(4-Fluoro-3-{[4-(3-fluorocyclopentyl)-3-oxopiperazin-1-yl]carbonyl}benzyl)-4,5-dimethylpyridazin-3(2H)-one] | > 8.30 | 50 to 500 nM |
| C[C@@H]1CN(C(=O)c2cc(Cc3cc(C(F)(F)F)c(=O)[nH]n3)ccc2F)CC(=O)N1C1CCCC1 [Example 151, 6-(3-{[(3R)-4-cyclopentyl-3-methyl-5-oxopiperazin-1-yl]carbonyl}-4-fluorobenzyl)-4-(trifluoromethyl)pyridazin-3(2H)-one] | 7.60 to 8.30 | < 50 nM |
| C[C@H]1CN(C(=O)c2cc(Cc3cc(C(F)(F)F)c(=O)[nH]n3)ccc2F)CC(=O)N1C1CCCC1 [Example 152, 6-(3-{[(3S)-4-cyclopentyl-3-methyl-5-oxopiperazin-1-yl]carbonyl}-4-fluorobenzyl)-4-(trifluoromethyl)pyridazin-3(2H)-one] | 7.60 to 8.30 | < 5000 nM |
| COCCN1CCN(C(=O)c2cc(Cc3n[nH]c(=O)c(C)c3C)ccc2F)CC1=O [Example 170, 6-(4-Fluoro-3-{[4-(2-methoxyethyl)-3-oxopiperazin-1-yl]carbonyl}benzyl)-4,5-dimethylpyridazin-3(2H)-one] | 7.60 to 8.30 | < 5000 nM |
| CCOCCN1CCN(C(=O)c2cc(Cc3n[nH]c(=O)c(C)c3C)ccc2F)CC1=O [Example 171, 6-(3-{[4-(2-Ethoxyethyl)-3-oxopiperazin-1-yl]carbonyl}-4-fluorobenzyl)-4,5-dimethylpyridazin-3(2H)-one] | > 8.30 | < 5000 nM |
| Cc1c(Cc2ccc(F)c(C(=O)N3CCN(CCOC(C)C)C(=O)C3)c2)n[nH]c(=O)c1C [Example 172, 6-(4-Fluoro-3-{[4-(2-isopropoxyethyl)-3-oxopiperazin-1-yl]carbonyl}benzyl)-4,5-dimethylpyridazin-3(2H)-one] | 7.60 to 8.30 | < 5000 nM |
| Cc1c(Cc2ccc(F)c(C(=O)N3CC(=O)N(C4CCC4)[C@@H](C)C3)c2)n[nH]c(=O)c1C [Example 176, 6-(3-{[(3S)-4-Cyclobutyl-3-methyl-5-oxopiperazin-1-yl]carbonyl}-4-fluorobenzyl)-4,5-dimethylpyridazin-3(2H)-one] | 7.60 to 8.30 | < 5000 nM |
| CC[C@H]1CN(C(=O)c2cc(Cc3n[nH]c(=O)c(C)c3C)ccc2F)CC(=O)N1C1CCC1 [Example 181, 6-(3-{[(3S)-4-Cyclobutyl-3-ethyl-5-oxopiperazin-1-yl]carbonyl}-4-fluorobenzyl)-4,5-dimethylpyridazin-3(2H)-one] | 7.60 to 8.30 | < 5000 nM |
| Cc1c(Cc2ccc(F)c(C(=O)N3CC(=O)N(C4CCCC4)C(CC(C)C)C3)c2)n[nH]c(=O)c1C (stereo not shown) [Example 185, 6-{3-[(4-Cyclopentyl-3-isobutyl-5-oxopiperazin-1-yl)carbonyl]-4-fluorobenzyl}-4,5-dimethylpyridazin-3(2H)-one] | 6.82 to 7.60 | < 5000 nM |
| Cc1c(Cc2ccc(F)c(C(=O)N3CC(=O)N(C4CCCC4)[C@H](C(C)C)C3)c2)n[nH]c(=O)c1C [Example 207, 6-(3-{[(3R)-4-Cyclopentyl-3-isopropyl-5-oxopiperazin-1-yl]carbonyl}-4-fluorobenzyl)-4,5-dimethylpyridazin-3(2H)-one] | 7.60 to 8.30 | < 5000 nM |
